According to US9902709B2, “Polysubstituted pyridine compound, preparation method, use and pharmaceutical composition” (PEKING UNIVERSITY FOUNDER GROUP CO., LTD., priority 2014, dated 2018):

Key:
[1] = system: human colon cancer HCT-116 transplantation; experiment: Effect on tumor weight of human colon cancer HCT-116 transplantation nude mice (Comparative Experiment Example 2); format: in vivo; conditions: QD × 17 day, sorafenib as p-toluenesulfonate, FD-1210005 free form
Excerpt: Comparative Experiment Example 2
Under aseptic conditions, the well grown human HCT-116 cell suspension in logarithmic growth phase was used to inoculate nude mouse at axillary cavity of right forelimb subcutaneously via an injector. The tumor growth state was observed regularly until the tumor grew to a volume of 100˜300 mm^3.
48 Tumor-bearing mice with a tumor volume of 100˜300 mm^3 were selected and divided into 6 groups, which were 1 solvent control group, 3 positive control groups, and 2 test sample groups. Both the positive control group and the test sample group were administered intragastrically once a day; the solvent control group was administered with 12.5% ethanol & 12.5% water solution of polyoxyethylene castor oil once a day; intragastrical volume was 10 mL/kg.
In the period of administration, tumor diameter was measured twice every week, tumor volume was calculated, and animal body weight was recorded. Animal state was observed when administered, and abnormal state was recorded.
Animal was sacrificed with CO2, and tumor mass was peeled off, weighed, and photographed. After photographed, each tumor mass was cut into two parts, wherein one was stored in 4% paraformaldehyde, and the other was packaged into a freezing tube, and frozen in liquid nitrogen. Animal was subjected to gross anatomy, and organs were observed by eyes to find if they were normal or not.
Observation Indexes: Tumor weight inhibiting rate (IR)=(WC−WT)/WC
wherein WC and WT represented the average tumor weight of solvent control group and the average tumor weight of drug administration group, respectively.
Experimental data was subjected to calculation and relevant statistic processing by Microsoft Office Excel 2003 software. Unless otherwise specified, data was represented as Mean±Standard Error (Mean±S.E.), and t-test is used in the comparison between two groups.

[2] = system: HCT116 xenograft; experiment: Tumor-inhibiting effect on HCT116 xenograft tumor-bearing mice (Experimental Example 5); format: in vivo, Balb/c nude mice; conditions: QD × 14 day, free form; for TGI: from tumor weight
Protocol: HCT116 cells were cultured in McCoy's 5a culture medium containing inactivated 10% fetal bovine serum, 100 Um′ penicillin and 100 μg/ml streptomycin as well as 2 mM glutamine in an incubator at 37° C., 5% CO2. During cell culture, the initial concentration was 5×10^5 cells/ml, and the cells were separated into other bottles every 3 to 4 days when the cells reached a cell density of 100%. The tumor cells in logarithmic growth phase were used in tumor inoculation in vivo.
Balb/c nude mice was inoculated subcutaneously at right lateral thorax with HCT116 tumor cells re-suspended in PBS at 1.0×10^7 cells/0.1 ml. When the tumor grew into a volume of 800 mm^3, the animal was sacrificed and under aseptic conditions, tumor was peeled off. The well grown tumor tissues were cut into tumor mass with a size of 2×2×2 mm^3, and then were used to inoculate animal at right lateral thorax subcutaneously. 60 animals were inoculated. When the tumor grew into a volume of about 110 mm^3, the mice were grouped and administered, 5 groups in total, 8 mice per group.
The volume of tumor was measured by using Vernier caliper twice a week. The long diameter and short diameter of tumor were measured. The volume was calculated by the formula: volume=0.5× long diameter×short diameter^2. After the final measurement, the animal was sacrificed and the tumor was peeled off and weighed. Based on the tumor weight, tumor growth-inhibiting rate (TGI) was calculated. […] When the assay was finished, the experimental animal was subjected to euthanasia.

[3] = target: VEGFR2 (Homo sapiens (Human), UniProt P35968); experiment: Inhibitory activity of VEGFR2 kinase (HTRF KinEASE-TK kit); format: biochemical
Protocol: HTRF®KinEASE™-TK kit (Cat.62TKOPEC, Cisbio);
VEGFR2 (Cat: k2643, Sigma);
2.1 Preparation of VEGFR2 Kinase Reagent
1× kinase buffer: 1 mL 1× kinase buffer contained 200 μL 5× kinase buffer (Invitrogen), 5 μL, 1M MgCl2, 1 μL 1M DTT, 1 μL 1M MnCl2, and 793 μL ddH2O;
5×TK substrate-biotin and ATP working fluid: as the concentrations of TK substrate-biotin and ATP, please refer to Table 1. TK substrate-biotin and ATP were diluted with 1× kinase buffer to 5 folds of the reaction concentrations;
5× kinase working fluid: as the concentration of VEGFR2 kinase, please refer to Table 1. 5× kinase working fluid was prepared with 1× Kinase buffer;
4× Sa-XL665 working fluid: as the concentration of Sa-XL665 (Cisbio) in the reaction, please refer to Table 1. The 4× Sa-XL665 working fluid was prepared with assay buffer (Cisbio);
4×TK Ab-cryptate working fluid: TK Ab-Cryptate (Cisbio) was 100-fold diluted with assay buffer (Cisbio), as working fluid;
Experimental Procedure of HTRF KinEASE TK Kit
After all the reagents were prepared as described above, the reagents except for enzymes were equilibrated to room temperature, then adding samples were performed.
TK substrate-biotin, ATP, VEGFR2 kinase and a compound at a certain concentration were reacted in 1× kinase buffer at room temperature for 20 minutes. […] To all the reaction wells, 5 μl 4× Sa-XL665 working fluid and 5 μl 4×TK Ab-cryptate working fluid were added. After reacting at room temperature for 1 hours, fluorescence signal (excited at 320 nm, emitted at 665 nm, 615 nm) was detected by ENVISION detector (Perkinelmer). Based on the full-active well and the background signal well, the inhibition rate for each well was calculated, and the average value was used for duplicate wells. The half maximal inhibitory concentration (IC50) for each test compound was fitted by professional software Graphpad PRISM 5.0.
2.3 Data Analysis Emission light ratio (ER)=665 nm emission signal/615 nm emission signal Inhibition rate=(ERpositive−ERsample)/(ERpositive−ERnegative)*100%
HTRF KinEASE TK kit was used to determine the IC50 value of a compound for kinase VEGFR2. The final concentration of the compound started from 100 μM, and 4-fold gradient dilution was carried out to provide 10 concentrations. Duplicate wells were used for each concentration. The final concentration of DMSO was controlled to 1% in the reaction system.

Sequence of VEGFR2 (P35968 20-1356): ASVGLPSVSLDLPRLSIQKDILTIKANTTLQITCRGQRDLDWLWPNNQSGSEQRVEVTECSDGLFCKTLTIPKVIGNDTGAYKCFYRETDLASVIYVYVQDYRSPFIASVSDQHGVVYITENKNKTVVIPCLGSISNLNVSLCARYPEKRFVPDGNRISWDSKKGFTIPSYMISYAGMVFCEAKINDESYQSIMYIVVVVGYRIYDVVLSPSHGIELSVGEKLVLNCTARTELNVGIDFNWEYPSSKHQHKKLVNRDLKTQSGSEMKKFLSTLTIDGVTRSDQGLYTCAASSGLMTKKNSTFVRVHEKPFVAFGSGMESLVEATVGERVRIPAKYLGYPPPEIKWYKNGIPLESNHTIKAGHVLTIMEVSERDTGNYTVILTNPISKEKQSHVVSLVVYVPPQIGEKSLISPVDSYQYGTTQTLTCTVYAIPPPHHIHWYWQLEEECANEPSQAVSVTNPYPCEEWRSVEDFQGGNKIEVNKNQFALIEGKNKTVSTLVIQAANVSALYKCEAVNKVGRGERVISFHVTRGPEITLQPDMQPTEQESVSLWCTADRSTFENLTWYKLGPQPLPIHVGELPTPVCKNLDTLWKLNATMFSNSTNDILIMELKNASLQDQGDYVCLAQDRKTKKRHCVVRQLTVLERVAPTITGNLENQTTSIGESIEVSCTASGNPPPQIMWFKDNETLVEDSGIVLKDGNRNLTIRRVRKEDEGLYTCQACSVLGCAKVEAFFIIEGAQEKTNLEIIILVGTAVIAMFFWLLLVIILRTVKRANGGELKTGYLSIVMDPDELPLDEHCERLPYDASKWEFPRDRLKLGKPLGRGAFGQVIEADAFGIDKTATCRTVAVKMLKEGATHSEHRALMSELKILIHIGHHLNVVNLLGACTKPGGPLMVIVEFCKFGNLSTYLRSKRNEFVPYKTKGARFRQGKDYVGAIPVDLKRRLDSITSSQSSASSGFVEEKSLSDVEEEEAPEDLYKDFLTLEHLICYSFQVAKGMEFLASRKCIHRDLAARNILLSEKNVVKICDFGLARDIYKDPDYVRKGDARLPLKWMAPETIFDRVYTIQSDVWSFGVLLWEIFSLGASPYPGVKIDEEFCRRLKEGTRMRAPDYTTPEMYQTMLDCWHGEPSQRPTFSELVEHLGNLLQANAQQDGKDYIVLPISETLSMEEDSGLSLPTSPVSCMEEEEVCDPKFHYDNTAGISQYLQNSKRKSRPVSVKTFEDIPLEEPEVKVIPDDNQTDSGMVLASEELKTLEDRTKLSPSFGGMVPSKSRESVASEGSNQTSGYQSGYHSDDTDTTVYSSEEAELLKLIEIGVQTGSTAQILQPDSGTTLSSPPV

Compound: CNC(=O)c1cc(Oc2ccc(NC(=O)Nc3ccc(Cl)c(C(F)(F)F)c3)cc2)ccn1 [Comparative example 1, Sorafenib, reference compound]
- Tumor weight Mean ± S.E ([1]; 20 mg/kg Ig): 0.5628 ± 0.0617 g
- Tumor-inhibiting rate ([1]; 20 mg/kg Ig): 43.28%
- Tumor weight Mean ± S.E ([1]; 60 mg/kg Ig): 0.4409 ± 0.0857 g
- Tumor-inhibiting rate ([1]; 60 mg/kg Ig): 55.57%

Compound: Cn1cc(-c2nccc(Oc3ccc(NC(=O)Nc4ccc(Cl)c(C(F)(F)F)c4)cc3)c2Cl)cn1 [Example 2, 1-(4-chloro-3-(trifluoromethyl)phenyl)-3-(4-(3-chloro-2-(1-methyl-pyrazol-4-yl)-pyridin-4-yl-oxy)phenyl)urea]
- Tumor weight (D27) Mean ± S.E ([2]; 10 mg/kg po): 0.153 ± 0.078 g
- TGI ([2]; 10 mg/kg po): 84.1%
- Tumor weight (D27) Mean ± S.E ([2]; 20 mg/kg po): 0.104 ± 0.035 g
- TGI ([2]; 20 mg/kg po): 89.1%
- Tumor weight (D27) Mean ± S.E ([2]; 40 mg/kg po): 0.077 ± 0.043 g
- TGI ([2]; 40 mg/kg po): 92%
- TGI ([2]; 40 mg/kg po, listed as FD-2013018): 92.0%
- IC50 ([3]; ATP 5 μM, 20 minutes, room temperature): 0.0555 µM
- inhibitory activity as fold of that of Comparative compound 2 ([3]; VEGFR2 kinase): 3.4 fold
- inhibitory activity as fold of that of Sorafenib ([3]; VEGFR2 kinase): 1.61 fold
- IC50 value as fold of that of Comparative compound 2 ([3]; VEGFR2 kinase, ratio of IC50): 0.34 fold
- IC50 value as fold of that of Sorafenib (free base) ([3]; VEGFR2 kinase, ratio of IC50): 0.62 fold
